Reference: paper PMC12543283, “TastepepAI: An artificial intelligence platform for taste peptide de novo design” (PLOS Computational Biology, 2025)
Ends that are not written are not given here.

Legend:
[1] = system: human pancreatic ductal epithelial cells (HPNE)
[2] = system: human embryonic kidney cells (HEK293T)
[3] = system: human umbilical vein endothelial cells (HUVEC)
[4] = system: human bronchial epithelial cells (BEAS-2B)
[5] = Electronic tongue analysis (Taste-Sensing System SA 402B); set-up: unit not given here; conditions: reference solution 30 mM KCl + 0.3 mM tartaric acid as baseline, first measurement excluded; for Umami: sensor AAE; for Umami / Bitter / Sweet: detection threshold 0, room temperature; for Umami / Bitter / Sour / Salty: four replicates; for Sour: detection threshold -13, room temperature; for Salty: detection threshold -6, room temperature; for Sweet: measured five times
Method in brief: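 Samples were tested at 0.1 and 1.0 mg/mL on an SA 402B e-tongue fitted with sourness, saltiness, bitterness, sweetness and umami sensors, with 30 mM KCl/0.3 mM tartaric acid as reference and baseline. Thresholds were −13 for sour, −6 for salty and 0 for the rest. Runs at room temperature: four replicates, five for sweetness, first reading discarded.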

Row | Substance | Average cell viability, HPNE [1] | Cell viability, HPNE, Data1 [1] | Cell viability, HPNE, Data2 [1] | Cell viability, HPNE, Data3 [1] | Average cell viability, HEK293T [2] | Cell viability, HEK293T, Data1 [2] | Cell viability, HEK293T, Data2 [2] | Cell viability, HEK293T, Data3 [2] | Average cell viability, HUVEC [3] | Cell viability, HUVEC, Data1 [3] | Cell viability, HUVEC, Data2 [3] | Cell viability, HUVEC, Data3 [3] | Average cell viability, BEAS-2B [4] | Cell viability, BEAS-2B, Data1 [4] | Cell viability, BEAS-2B, Data2 [4] | Cell viability, BEAS-2B, Data3 [4] | Umami ([5]; peptide 0.1 mg/mL) | Umami ([5]; peptide 1 mg/mL) | Bitter ([5]; sensor C00, peptide 0.1 mg/mL) | Bitter ([5]; sensor C00, peptide 1 mg/mL) | also measured
1 | FEGPE [TaPep62] | 104.06 | 108.32 | 92.35 | 111.51 | 100.16 | 97.95 | 102.21 | 100.32 | 108.97 | 109.69 | 105.38 | 111.84 | 106.55 | 112.26 | 103.59 | 103.79 | 1.43 | -4.77 | 7.43 | 3.70 | Sour ([5]; sensor CA0, peptide 0.1 mg/mL): -2.87; Sour ([5]; sensor CA0, peptide 1 mg/mL): 11.86; Salty ([5]; sensor CT0, peptide 0.1 mg/mL): -20.91; Salty ([5]; sensor CT0, peptide 1 mg/mL): 8.50; Sweet ([5]; sensor GL1, peptide 0.1 mg/mL): 6.38; Sweet ([5]; sensor GL1, peptide 1 mg/mL): -4.13
2 | FNGVE [TaPep61] | 94.34 | 84.66 | 82.36 | 116.01 | 98.80 | 99.65 | 96.91 | 99.84 | 99.47 | 89.49 | 104.82 | 104.10 | 99.57 | 95.41 | 109.57 | 93.72 | 3.14 | -2.71 | 6.59 | 3.33 | Sour ([5]; sensor CA0, peptide 0.1 mg/mL): -7.21; Sour ([5]; sensor CA0, peptide 1 mg/mL): 6.60; Salty ([5]; sensor CT0, peptide 0.1 mg/mL): -23.88; Salty ([5]; sensor CT0, peptide 1 mg/mL): 3.55; Sweet ([5]; sensor GL1, peptide 0.1 mg/mL): 8.89; Sweet ([5]; sensor GL1, peptide 1 mg/mL): -2.71
3 | FPEQQD [TaPep16] | 104.83 | 100.13 | 113.61 | 100.73 | 100.13 | 105.99 | 97.00 | 97.38 | 101.44 | 102.74 | 107.69 | 93.88 | 95.65 | 98.50 | 96.11 | 92.32 | 1.15 | -5.22 | 7.29 | 3.65 | Sour ([5]; sensor CA0, peptide 0.1 mg/mL): -2.22; Sour ([5]; sensor CA0, peptide 1 mg/mL): 12.97; Salty ([5]; sensor CT0, peptide 0.1 mg/mL): -21.97; Salty ([5]; sensor CT0, peptide 1 mg/mL): 7.92; Sweet ([5]; sensor GL1, peptide 0.1 mg/mL): 4.77; Sweet ([5]; sensor GL1, peptide 1 mg/mL): -5.75
4 | FTEELE [TaPep32] | 103.23 | 117.80 | 110.72 | 81.16 | 100.73 | 105.14 | 99.56 | 97.48 | 98.11 | 111.20 | 89.81 | 93.32 | 106.88 | 104.99 | 104.59 | 111.07 | 1.89 | -4.56 | 7.51 | 2.80 | Sour ([5]; sensor CA0, peptide 0.1 mg/mL): -3.82; Sour ([5]; sensor CA0, peptide 1 mg/mL): 11.60; Salty ([5]; sensor CT0, peptide 0.1 mg/mL): -20.95; Salty ([5]; sensor CT0, peptide 1 mg/mL): 9.59; Sweet ([5]; sensor GL1, peptide 0.1 mg/mL): 8.60; Sweet ([5]; sensor GL1, peptide 1 mg/mL): -6.23
5 | HGGDDLG [TaPep28] | 100.10 | 100.63 | 102.04 | 97.63 | 97.67 | 96.62 | 99.75 | 96.62 | 104.66 | 105.77 | 106.73 | 101.46 | 108.84 | 111.86 | 106.08 | 108.57 | 1.08 | -5.39 | 7.58 | 4.00 | Sour ([5]; sensor CA0, peptide 0.1 mg/mL): -2.05; Sour ([5]; sensor CA0, peptide 1 mg/mL): 13.70; Salty ([5]; sensor CT0, peptide 0.1 mg/mL): -21.08; Salty ([5]; sensor CT0, peptide 1 mg/mL): 11.23; Sweet ([5]; sensor GL1, peptide 0.1 mg/mL): 3.25; Sweet ([5]; sensor GL1, peptide 1 mg/mL): -6.08
6 | HIDELDE [TaPep22] | 95.67 | 103.83 | 84.66 | 98.54 | 98.23 | 106.09 | 94.35 | 94.26 | 101.94 | 90.69 | 106.97 | 108.17 | 111.67 | 106.78 | 113.26 | 114.96 | 2.56 | -3.68 | 6.91 | 3.37 | Sour ([5]; sensor CA0, peptide 0.1 mg/mL): -5.65; Sour ([5]; sensor CA0, peptide 1 mg/mL): 9.43; Salty ([5]; sensor CT0, peptide 0.1 mg/mL): -22.87; Salty ([5]; sensor CT0, peptide 1 mg/mL): 7.21; Sweet ([5]; sensor GL1, peptide 0.1 mg/mL): 7.18; Sweet ([5]; sensor GL1, peptide 1 mg/mL): -4.86
